From patent US20260109715A1, “IMIDAZOPYRIDINE DERIVATIVES WITH BICYCLIC STRUCTURE” (PUBLIC UNIVERSITY CORPORATION YOKOHAMA CITY UNIVERSITY, priority 2022, published 2026)
pEC50, pIC50: −log10 of the molar value.

Columns and labels:
[1] = test system: Snhg1 transcript (NMD target gene) in EMT6 murine breast cancer cell line; experiment: Measurement of NMD inhibitory activity in cells (increase in Snhg1 transcript, real-time PCR); set-up: species or system mouse; details: Mus musculus, 6 hours treatment, concentration giving 1/2 of maximum Snhg1 fold change of positive control, read-out: Test Example 2 Cell-based Snhg1 EC50
Summary of the method: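 EMT6 cells treated with serially diluted compound (2% DMSO final) for 6 h; Snhg1 transcript quantified by real-time PCR (ΔΔCT, Tbp endogenous control, untreated wells set to 1). EC50 taken as concentration giving half the maximum fold change of a known NMD inhibitor positive control.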

human SMG1 enzyme = human SMG1 enzyme (Homo sapiens, UniProt Q96Q15); experiment: Measurement of SMG1 kinase activity (ADP-Glo Kinase Assay); assay type: biochemical; details: purified human SMG1 enzyme 5 nM, Upf1 peptide substrate, ATP 4 μM; qAC50 synonymous with IC50; read-out: Test Example 1 ADP-Glo IC50
Sequence of human SMG1 enzyme (Q96Q15 whole entry): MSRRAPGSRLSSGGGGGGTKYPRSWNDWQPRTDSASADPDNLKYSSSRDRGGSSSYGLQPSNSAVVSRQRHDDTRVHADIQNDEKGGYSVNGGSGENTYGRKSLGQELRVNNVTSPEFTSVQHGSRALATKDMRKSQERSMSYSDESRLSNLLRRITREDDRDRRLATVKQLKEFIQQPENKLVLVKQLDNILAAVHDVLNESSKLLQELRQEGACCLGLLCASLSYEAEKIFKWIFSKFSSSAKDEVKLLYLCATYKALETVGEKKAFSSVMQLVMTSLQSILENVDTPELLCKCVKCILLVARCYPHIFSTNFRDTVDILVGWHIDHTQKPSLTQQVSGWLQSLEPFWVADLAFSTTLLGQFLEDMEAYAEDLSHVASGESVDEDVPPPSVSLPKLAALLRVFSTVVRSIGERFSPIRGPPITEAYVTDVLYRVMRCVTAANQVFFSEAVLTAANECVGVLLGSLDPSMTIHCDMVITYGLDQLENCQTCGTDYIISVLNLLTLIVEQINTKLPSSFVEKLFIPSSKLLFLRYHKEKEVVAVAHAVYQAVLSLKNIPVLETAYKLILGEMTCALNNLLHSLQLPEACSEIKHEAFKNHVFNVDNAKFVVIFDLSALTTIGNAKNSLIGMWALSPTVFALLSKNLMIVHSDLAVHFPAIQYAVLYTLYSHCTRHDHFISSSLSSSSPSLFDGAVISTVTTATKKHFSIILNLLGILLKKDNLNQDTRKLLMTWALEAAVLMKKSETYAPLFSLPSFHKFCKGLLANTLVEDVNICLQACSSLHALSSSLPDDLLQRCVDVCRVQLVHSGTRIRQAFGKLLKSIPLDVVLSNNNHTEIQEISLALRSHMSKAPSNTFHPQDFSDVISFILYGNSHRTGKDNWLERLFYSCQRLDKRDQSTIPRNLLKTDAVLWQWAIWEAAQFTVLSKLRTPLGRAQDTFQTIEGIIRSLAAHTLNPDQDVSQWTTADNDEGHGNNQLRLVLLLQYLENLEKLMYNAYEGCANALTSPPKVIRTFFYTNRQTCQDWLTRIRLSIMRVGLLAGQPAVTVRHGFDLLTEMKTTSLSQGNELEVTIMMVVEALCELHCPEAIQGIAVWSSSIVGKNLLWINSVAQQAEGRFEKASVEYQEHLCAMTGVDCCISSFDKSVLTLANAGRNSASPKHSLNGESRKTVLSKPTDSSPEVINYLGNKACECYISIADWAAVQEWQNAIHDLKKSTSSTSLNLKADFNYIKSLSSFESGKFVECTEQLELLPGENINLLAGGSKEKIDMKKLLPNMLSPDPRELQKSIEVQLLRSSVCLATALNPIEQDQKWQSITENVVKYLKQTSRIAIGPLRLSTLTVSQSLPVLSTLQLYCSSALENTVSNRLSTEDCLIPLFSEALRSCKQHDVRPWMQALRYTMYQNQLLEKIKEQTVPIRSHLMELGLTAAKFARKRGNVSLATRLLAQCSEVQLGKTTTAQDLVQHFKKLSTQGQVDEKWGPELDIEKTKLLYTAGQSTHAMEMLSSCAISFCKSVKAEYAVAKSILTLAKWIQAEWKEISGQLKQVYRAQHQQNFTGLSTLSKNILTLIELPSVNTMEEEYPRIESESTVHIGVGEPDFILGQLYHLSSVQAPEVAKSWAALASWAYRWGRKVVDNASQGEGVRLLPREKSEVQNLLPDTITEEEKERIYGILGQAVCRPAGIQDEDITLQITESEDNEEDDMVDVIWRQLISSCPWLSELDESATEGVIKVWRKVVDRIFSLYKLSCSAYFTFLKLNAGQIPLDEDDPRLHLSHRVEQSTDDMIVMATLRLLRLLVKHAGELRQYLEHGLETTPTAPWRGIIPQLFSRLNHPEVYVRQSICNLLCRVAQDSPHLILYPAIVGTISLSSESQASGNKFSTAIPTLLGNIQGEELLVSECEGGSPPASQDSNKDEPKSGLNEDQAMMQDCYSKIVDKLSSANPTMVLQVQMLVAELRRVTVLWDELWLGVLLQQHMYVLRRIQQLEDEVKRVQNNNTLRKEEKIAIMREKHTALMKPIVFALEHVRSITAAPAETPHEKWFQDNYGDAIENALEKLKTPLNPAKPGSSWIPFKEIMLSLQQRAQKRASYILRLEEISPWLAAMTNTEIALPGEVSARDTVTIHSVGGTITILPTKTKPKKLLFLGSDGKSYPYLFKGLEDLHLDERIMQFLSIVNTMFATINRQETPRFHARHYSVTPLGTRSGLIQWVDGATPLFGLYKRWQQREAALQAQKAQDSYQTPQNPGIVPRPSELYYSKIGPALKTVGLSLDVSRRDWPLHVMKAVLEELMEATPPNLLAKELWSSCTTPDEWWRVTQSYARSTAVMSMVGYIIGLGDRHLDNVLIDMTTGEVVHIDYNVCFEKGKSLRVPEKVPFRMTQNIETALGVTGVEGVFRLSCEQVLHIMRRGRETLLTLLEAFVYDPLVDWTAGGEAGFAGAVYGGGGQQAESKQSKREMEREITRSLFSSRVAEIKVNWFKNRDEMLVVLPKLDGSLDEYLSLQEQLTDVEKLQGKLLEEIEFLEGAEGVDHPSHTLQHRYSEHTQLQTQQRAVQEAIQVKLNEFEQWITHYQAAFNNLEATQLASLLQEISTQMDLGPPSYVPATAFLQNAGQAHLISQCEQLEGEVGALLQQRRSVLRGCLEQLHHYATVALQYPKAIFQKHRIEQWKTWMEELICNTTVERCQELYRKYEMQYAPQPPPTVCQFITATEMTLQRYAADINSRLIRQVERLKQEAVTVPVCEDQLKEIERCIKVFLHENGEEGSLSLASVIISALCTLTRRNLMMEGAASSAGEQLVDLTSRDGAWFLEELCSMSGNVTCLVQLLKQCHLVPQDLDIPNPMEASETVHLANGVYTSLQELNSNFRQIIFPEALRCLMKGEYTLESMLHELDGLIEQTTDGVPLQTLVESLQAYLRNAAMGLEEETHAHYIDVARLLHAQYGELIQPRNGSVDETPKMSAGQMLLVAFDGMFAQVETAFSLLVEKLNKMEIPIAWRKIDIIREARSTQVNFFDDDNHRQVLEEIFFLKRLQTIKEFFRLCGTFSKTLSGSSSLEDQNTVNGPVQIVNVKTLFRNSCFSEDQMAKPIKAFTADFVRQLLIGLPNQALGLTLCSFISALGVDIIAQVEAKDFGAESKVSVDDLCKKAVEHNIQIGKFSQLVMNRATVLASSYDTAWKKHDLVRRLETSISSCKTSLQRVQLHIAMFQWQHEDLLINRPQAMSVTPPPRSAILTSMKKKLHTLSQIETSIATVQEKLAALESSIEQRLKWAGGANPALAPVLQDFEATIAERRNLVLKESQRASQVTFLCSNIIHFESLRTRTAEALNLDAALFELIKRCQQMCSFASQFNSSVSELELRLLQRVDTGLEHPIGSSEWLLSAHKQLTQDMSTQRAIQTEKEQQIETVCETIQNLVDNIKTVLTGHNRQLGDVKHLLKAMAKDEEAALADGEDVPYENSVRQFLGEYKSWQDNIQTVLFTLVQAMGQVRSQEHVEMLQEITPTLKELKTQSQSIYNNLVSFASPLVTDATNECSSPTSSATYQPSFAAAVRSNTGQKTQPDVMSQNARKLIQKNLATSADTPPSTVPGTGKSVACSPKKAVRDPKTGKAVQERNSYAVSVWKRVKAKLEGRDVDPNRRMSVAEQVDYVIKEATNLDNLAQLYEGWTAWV
Summary of the method: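 Purified human SMG1 (5 nM) preincubated with compound (1% DMSO) 15 min at room temperature in HEPES pH 7.5 buffer with MnCl2, then reacted 60 min with Upf1 peptide (8 μg/mL) and 4 μM ATP. ADP formed measured by ADP-Glo luminescence; IC50 by 4-parameter logistic fit, normalised to DMSO (0%) and enzyme-free (−100%) wells.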

[2] = test system: Snhg1 transcript in tumor tissues of mice subcutaneously implanted with EMT6 murine breast cancer cell line; experiment: Evaluation of NMD inhibitory activity in vivo (Snhg1 transcript in EMT6 tumor tissue after oral administration); details: 10 mg/kg oral, 6 hours after administration, BALB/c mice
Summary of the method: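 BALB/c mice bearing subcutaneous EMT6 tumours (engraftment confirmed day 7) dosed orally; tumours excised 6 h post-dose. Snhg1 RNA quantified by qRT-PCR, ΔΔCT with Gapdh as endogenous control, expressed relative to 0.5% methylcellulose vehicle group set at 1.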

In the case of `CCc1nc(Cl)cc2[nH]c(N3Cc4c(ccnc4-c4cnc(C5CC5)cc4OC)NC3=O)nc12.CS(=O)(=O)O` [Example 154, 3-(6-chloro-4-ethyl-1H-imidazo[4,5-c]pyridin-2-yl)-5-(6-cyclopropyl-4-methoxypyridin-3-yl)-3,4-dihydropyrido[4,3-d]pyrimidin-2(1H)-one methanesulfonate], the pEC50 [1] was 9.30, the pIC50 (human SMG1 enzyme) was 9.28 and the Snhg1 fold change [2] was 10.
